# Tested on: spontaneously hypertensive rat (SHR)
# Test: In vivo model study: telemetry cardiovascular assessment in SHR rats
# Conditions: male SHR rats, intraperitoneal administration, radiotelemetry, preliminary evaluation
# Description: The objective of this study is to define the magnitude, time course and dose/concentration response relationship of compound 13 antihypertensive effects when administered intraperitoneally (IP) to male SHR rats maintained on standard and low salt diets. In Vivo Phase I: Three male SHR rats, 7-10 weeks of age weighing 150-300 g, will be instrumented with radiotelemetry transmitters. Following an approximate 2-week recovery period, animals will receive a single intraperitoneal dose of test article. Cardiovascular data will be collected for approximately 24 hours following dosing. Cardiovascular data is collected from non-restrained animals implanted with radiotelemetry devices. 1. SHR rats, 7-10 weeks of age weighing 150-300 g, are implanted with radiotelemetry devices. Transmitters are placed subcutaneously in the ventral abdominal region and blood pressure is monitored from the femoral artery. Animals will be allowed to recover at least 10 days prior to data collection. 5. At least 1 hour of baseline is collected from undisturbed animals prior to each dosing. Following test article administration, approximately 24 hours of data is collected from undisturbed animals to assess hemodynamic effects.
smiles,measurement,value
CCc1nc(N)nc(N)c1-c1ccc2c(c1)N(CCNC(=O)OC)C(=O)[C@](C)(c1cc(F)cc(F)c1)O2 [Compound 13],blood pressure reduction in SHR (antihypertensive effect),blood pressure reduction
